Test results published in the supplement of paper PMC10331698.
± gives the standard deviation of the averaged measurements.

Columns and labels:
Assay in all cases: level (log10 ratio to DMSO vehicle control); higher = higher biomarker level / cell amount than vehicle control
Conditions in all cases: in DMSO
[1] = compound: NS(=O)(=O)C(F)(F)C(F)(F)C(F)(F)C(F)(F)C(F)(F)C(F)(F)F [Perfluorohexanesulfonamide]
Method: (§1)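 BioMAP Diversity Plus panel of 12 human primary cell co-culture systems (3C, 4H, LPS, SAg, BT, BF4T, BE3C, CASM3C, HDF3CGF, KF3CT, MyoF, Mphg). Compounds were added 1 h before stimulation and left for 24 h (MyoF 48 h; BT 72 h for soluble read-outs or 6 d for IgG). Biomarkers were read by ELISA, cytotoxicity by SRB, PBMC viability and proliferation by Alamar Blue. Each well value was divided by the mean of 8 DMSO control wells on the same plate and log10 transformed; duplicate blinded samples were tested at 4 concentrations.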

[2] = compound: O=C(O)C=CC(F)(C(F)(F)F)C(F)(F)F [3-(Perfluoroisopropyl)-2-propenoic acid]
Method: as §1

[3] = compound: C=C(C)C(=O)OCCC(F)(F)C(F)(F)C(F)(F)C(F)(F)C(F)(F)C(F)(F)F [6:2 Fluorotelomer methacrylate]
Method: as §1

[4] = compound: FC(F)(F)C(F)(F)C(F)(F)C(F)(F)C(F)(F)C(F)(F)CC1CO1 [3-(Perfluorohexyl)-1,2-epoxypropane]
Method: as §1

Nonafluoropentanamide = compound: NC(=O)C(F)(F)C(F)(F)C(F)(F)C(F)(F)F [Nonafluoropentanamide]
Method: as §1

[5] = compound: O=C(O)C(F)(F)C(F)(F)C(F)(F)C(F)(F)C(F)(F)C(F)(F)C(F)(F)C(F)(F)C(F)(F)C(F)F [11-H-Perfluoroundecanoic acid]
Method: as §1

[6] = compound: O=S(=O)(F)C(F)(F)C(F)(F)C(F)(F)C(F)(F)C(F)(F)C(F)(F)C(F)(F)C(F)(F)F [Perfluorooctanesulfonyl fluoride]
Method: as §1

Row | Test System | level (log10) ([1]; 6700 nM) | level (log10) ([1]; 20000 nM) | level (log10) ([1]; 60000 nM) | level (log10) ([2]; 6700 nM) | level (log10) ([2]; 20000 nM) | level (log10) ([2]; 60000 nM) | level (log10) ([3]; 6700 nM) | level (log10) ([3]; 20000 nM) | level (log10) ([3]; 60000 nM) | level (log10) ([4]; 6700 nM) | level (log10) ([4]; 20000 nM) | level (log10) ([4]; 60000 nM) | level (log10) (Nonafluoropentanamide; 6700 nM) | level (log10) (Nonafluoropentanamide; 20000 nM) | level (log10) (Nonafluoropentanamide; 60000 nM) | level (log10) ([5]; 6700 nM) | level (log10) ([5]; 20000 nM) | level (log10) ([6]; 6700 nM) | level (log10) ([6]; 20000 nM) | level (log10) ([6]; 60000 nM)
1 | HDF3CGF:Proliferation 72hr | 0.058 ± 0.03 | 0.0595 ± 0.0078 | -0.267 ± 0.028 | -0.033 ± 0.083 | 0.0165 ± 0.086 | 0.04 ± 0.073 | -0.0385 ± 0.035 | -0.0525 ± 0.015 | -0.0545 ± 0.0021 | -0.014 ± 0.052 | -0.0355 ± 0.049 | 0 ± 0.069 | -0.0375 ± 0.005 | -0.0485 ± 0.019 | -0.048 ± 0.028 | -0.253 ± 0.048 | -0.443 ± 0.0028 | -0.0015 ± 0.057 | 0.0385 ± 0.013 | 0.03 ± 0.037
2 | HDF3CGF:SRB | -0.0045 ± 0.0064 | -0.009 ± 0.052 | -0.002 ± 0.033 | -0.014 ± 0.055 | 0.0205 ± 0.011 | -0.0055 ± 0.022 | 0.02 ± 0.0071 | 0.0315 ± 0.005 | 0.033 ± 0.013 | -0.001 ± 0.031 | -0.0035 ± 0.015 | -0.006 ± 0.04 | 0.024 ± 0.0042 | 0.022 ± 0.011 | 0.0245 ± 0.005 | 0.03 ± 0.0014 | 0.111 ± 0.024 | 0.017 ± 0.0014 | 0.0365 ± 0.025 | 0.043 ± 0.034
3 | HDF3CGF:TIMP-1 | 0.0235 ± 0.0078 | 0.048 ± 0.021 | 0.05 ± 0.017 | -0.006 ± 0.014 | 0.0105 ± 0.015 | 0.007 ± 0.0057 | -0.049 ± 0.028 | -0.0115 ± 0.0078 | -0.0055 ± 0.0035 | 0.0085 ± 0.025 | 0.0265 ± 0.025 | 0.0305 ± 0.012 | 0.0155 ± 0.059 | 0.0025 ± 0.05 | 0.0015 ± 0.0064 | 0.0005 ± 0.096 | 0.1 ± 0.072 | -0.0065 ± 0.00071 | 0.002 ± 0.0042 | -0.007 ± 0.0085
4 | HDF3CGF:TIMP-2 | 0.012 ± 0.023 | 0.0005 ± 0.0021 | -0.157 ± 0.0057 | -0.0105 ± 0.0021 | -0.0045 ± 0.011 | -0.0115 ± 0.012 | 0.0065 ± 0.087 | 0.018 ± 0.085 | 0.022 ± 0.082 | 0.0235 ± 0.012 | 0.0065 ± 0.00071 | -0.006 ± 0.02 | -0.0315 ± 0.016 | 0.0165 ± 0.06 | 0.0025 ± 0.091 | -0.0675 ± 0.046 | -0.103 ± 0.025 | -0.0005 ± 0.011 | 0.0185 ± 0.012 | -0.0085 ± 0.042
5 | KF3CT:CCL2/MCP-1 | -0.0225 ± 0.021 | -0.0525 ± 0.013 | -0.0145 ± 0.013 | -0.012 ± 0.017 | 0 ± 0.027 | 0.0105 ± 0.053 | -0.051 ± 0.021 | -0.0475 ± 0.005 | -0.0235 ± 0.005 | 0.0005 ± 0.0092 | -0.0125 ± 0.03 | 0.0075 ± 0.053 | 0.0175 ± 0.032 | 0.02 ± 0.0042 | 0.0215 ± 0.018 | -0.043 ± 0.021 | -0.129 ± 0.0078 | -0.0055 ± 0.0035 | -0.0305 ± 0.033 | 0.001 ± 0.052
6 | KF3CT:CD54/ICAM-1 | -0.0235 ± 0.015 | -0.019 ± 0.0085 | -0.0285 ± 0.025 | 0.0075 ± 0.013 | 0.011 ± 0.018 | -0.0025 ± 0.029 | 0.006 ± 0.016 | -0.014 ± 0.031 | -0.0075 ± 0.005 | 0.006 ± 0.0071 | 0.026 | 0.0085 ± 0.0092 | -0.018 ± 0.0071 | -0.016 ± 0.0071 | -0.025 ± 0.0028 | -0.0285 ± 0.039 | 0.0945 ± 0.0092 | 0.0055 ± 0.029 | 0.003 ± 0.0028 | 0.009 ± 0.0028
